Where two headings read alike, the source gives them in different places.
What was measured:
[1] = test system: A549: the human lung adenocarcinoma cell strain; experiment: cells; format: cell-based
Method: (§1) Experiment 1. Cytotoxicity Screening Assay at Cell Level of Compounds of this Invention
(§2) Tumor cells at log phase were incubated on 96-well plates at a density of 1˜1.2×10^4 cells/ml, 100 μl/well. 24 h later, treatment cells were exposed to the tested agents at different concentrations. Each tested agents had 4˜5 doses, and each dose had at least 3 parallel wells. Control cells were exposed to solvents in the same volume with treat agents. Cells were cultured at 37° C. in a cell incubator with 5% CO2 and 95% air atmosphere. After 4 days of culture, the incubation medium was removed, then 200 μl 0.2% MTT (prepared by RPMI 1640) was added to each well and the plates were incubated at 37° C. for 4 hours. The supernatant was discarded and dissolved the resulting formazen product with 200 μl DMSO in each well. The absorbance at a reference wavelength of 450 nm and a test wavelength of 570 nm was read on a microplate reader after tenderly shaking. Calculated drug inhibitory rate using the following equation and IC50, taking solvent exposure tumor cells as control cells.

[2] = test system: KB: the human oral epithelium cancer cell strain; experiment: cells; format: cell-based
Method: as §1, §2

[3] = test system: A549/Taxol: the taxol-resistant substrain of A549; experiment: cells; format: cell-based, human
Method: as §1, §2

[4] = test system: KB/V: the vincristine-resistant substrain of KB; experiment: cells; format: cell-based, human; details: Table 1; MTT, 4 days of culture; read-out: IC50(M) KB/V
Method: as §1, §2

HCT-8 = experiment: MTT cytotoxicity assay, HCT-8 cells; format: cell-based; details: Table 2, read-out: IC50 (mol/L) HCT-8
Method: as §1, §2

Bel-7402 = experiment: MTT cytotoxicity assay, Bel-7402 cells; format: cell-based; details: Table 2, read-out: IC50 (mol/L) Bel-7402
Method: as §1, §2

A2780 = experiment: MTT cytotoxicity assay, A2780 cells; format: cell-based, human; details: Table 2, read-out: IC50 (mol/L) A2780
Method: as §1, §2

[5] = test system: human mammary adenocarcinoma cell strain MCF-7; experiment: MTT cytotoxicity assay, MCF-7 cells; format: cell-based; details: Table 2, read-out: IC50 (mol/L) MCF-7
Method: as §1, §2

[6] = test system: MCF-7/D: adriamycin-resistant subline of the human mammary adenocarcinoma cell strain MCF-7; experiment: MTT cytotoxicity assay, MCF-7/D cells; format: cell-based; details: Table 2, read-out: IC50 (mol/L) MCF-7/D
Method: as §1, §2

BGC-823 = experiment: MTT cytotoxicity assay, BGC-823 cells; format: cell-based, human; details: Table 2, read-out: IC50 (mol/L) BGC-823
Method: as §1, §2

BGC-803 = experiment: MTT cytotoxicity assay, BGC-803 cells; format: cell-based; details: Table 2, read-out: IC50 (mol/L) BGC-803
Method: as §1, §2

[7] = test system: human ovarian cancer A2780-nude mice-xenograft tumor; experiment: Growth inhibition on A2780-nude mice-xenograft tumor; details: for Tv x ± SD dn: dn: 30 days after the first administration
Excerpt: (§3) Genera: BALB/c (nu-nu) nude mice
(§4) After one-week accommodation, animals were given subcutaneous implantation of the human lung adenocarcinoma A549 or the human ovarian cancer A2780 or the human gastric carcinoma BGC-823 cells. Animals were grouped randomly (d0) when the tumors reached 100-300 mm^3. […] Animal weights and tumor measurements were taken every […] and recorded. At the end of the study (d30 or d35), nude mice were euthanized and weighed. After the animals were sacrificed, tumor tissue was cut and weighed. Tumor volume was determined using the following equation: […]

[8] = test system: human gastric carcinoma BGC-823 nude mice-xenograft tumor; experiment: Growth inhibition on BGC-823-nude mice-xenograft tumor; details: for Tv x ± SD dn: dn 30 days after the first administration
Excerpt: as §3, §4

[9] = test system: human lung adenocarcinoma A549-nude mice-xenograft tumor; experiment: Growth inhibition on A549-nude mice-xenograft tumor
Excerpt: as §3, §4

Lewis lung cancer = experiment: Inhibitory activity on mice Lewis lung cancer

SMILES: CC=C(C)C(=O)NC(c1ccccc1)C(O)C(=O)OC1CC2(O)C(OC(=O)c3cccc(N=[N+]=[N-])c3)C3C4(OC(C)=O)COC4CC(OC(=O)CC)C3(C)C(=O)C(O)C(=C1C)C2(C)C (stereo not drawn) [Example 8, 2-(3-azidobenzoyl)-7-propionyl-10-deacetyl-cephalomannine]
- IC50 ([1]; Table 1, MTT, 4 days of culture, read-out: IC50(M) A549): 9.36e-09 M
- IC50 ([1]; Table 2, MTT assay, read-out: IC50 (mol/L) A549): 9.4e-10 M
- IC50 ([2]; Table 1, MTT, 4 days of culture, read-out: IC50(M) KB): 2.39e-09 M
- IC50 ([2]; Table 2, MTT assay, read-out: IC50 (mol/L) KB): 4.9e-10 M
- IC50 ([3]; Table 2, MTT assay, read-out: IC50 (mol/L) A549/T): 1.4 nM
- IC50 ([3]; read-out: IC50(M) A549/Taxol, Table 1, MTT, 4 days of culture): > 1000 nM
- IC50 [4]: 2.73e-07 M
- IC50 (HCT-8): 0.32 nM
- IC50 (Bel-7402): 8.7 nM
- IC50 (A2780): 3.6 nM
- IC50 [5]: 0.68 nM
- IC50 [6]: 270 nM
- IC50 (BGC-823): 1.3 nM
- IC50 (BGC-803): 2.4 nM
- RTV ([7]; 7.5 × 4 mg/kg i.p.): 7.8
- T/C (%) ([7]; 7.5 × 4 mg/kg i.p.): 80.3%
- Tv x ± SD d0 ([7]; 7.5 × 4 mg/kg i.p., d0): 127.6 ± 65.9
- Tv x ± SD dn ([7]; 7.5 × 4 mg/kg i.p.): 989.3 ± 658.9
- Body weight (g) end ([7]; 7.5 × 4 mg/kg i.p.): 25.5 g
- Body weight (g) initial ([7]; 7.5 × 4 mg/kg i.p.): 22.4 g
- RTV ([7]; 15 × 4 mg/kg i.p.): 6.6
- T/C (%) ([7]; 15 × 4 mg/kg i.p.): 68.1%
- Tv x ± SD d0 ([7]; 15 × 4 mg/kg i.p., d0): 130.2 ± 36.0
- Tv x ± SD dn ([7]; 15 × 4 mg/kg i.p.): 855.6 ± 500.3
- Body weight (g) end ([7]; 15 × 4 mg/kg i.p.): 25.2 g
- Body weight (g) initial ([7]; 15 × 4 mg/kg i.p.): 22.0 g
- RTV ([7]; 30 × 4 mg/kg i.p.): 3.4
- T/C (%) ([7]; 30 × 4 mg/kg i.p.): 34.9%
- Tv x ± SD d0 ([7]; 30 × 4 mg/kg i.p., d0 (first administration)): 157.1 ± 56.2
- Tv x ± SD dn ([7]; 30 × 4 mg/kg i.p.): 529.6 ± 454.8
- Body weight (g) end ([7]; 30 × 4 mg/kg i.p.): 22.3 g
- Body weight (g) initial ([7]; 30 × 4 mg/kg i.p.): 22.0 g
- inhibition of tumor growth, conclusion in words ([7]; A2780 nude mice-xenograft tumor, comparison with taxol): stronger effect
- RTV ([8]; 7.5 × 4 mg/kg i.p.): 17.45
- T/C (%) ([8]; 7.5 × 4 mg/kg i.p.): 63.84%
- Tv x ± SD d0 ([8]; 7.5 × 4 mg/kg i.p.): 101.1 ± 17.4
- Tv x ± SD dn ([8]; 7.5 × 4 mg/kg i.p.): 2057.5 ± 1756.4
- Body weight (g) end ([8]; 7.5 × 4 mg/kg i.p.): 26.1 g
- Body weight (g) initial ([8]; 7.5 × 4 mg/kg i.p.): 24.7 g
- RTV ([8]; 15 × 4 mg/kg i.p.): 9.27
- T/C (%) ([8]; 15 × 4 mg/kg i.p.): 33.90%
- Tv x ± SD d0 ([8]; 15 × 4 mg/kg i.p.): 104.4 ± 16
- Tv x ± SD dn ([8]; 15 × 4 mg/kg i.p.): 1156.6 ± 403.9
- Body weight (g) end ([8]; 15 × 4 mg/kg i.p.): 23.8 g
- Body weight (g) initial ([8]; 15 × 4 mg/kg i.p.): 25.2 g
- RTV ([8]; 30 × 4 mg/kg i.p.): 0.47
- T/C (%) ([8]; 30 × 4 mg/kg i.p.): 4.57%
- Tv x ± SD d0 ([8]; 30 × 4 mg/kg i.p.): 99.7 ± 34.3
- Tv x ± SD dn ([8]; 30 × 4 mg/kg i.p.): 177.1 ± 199.0
- Body weight (g) end ([8]; 30 × 4 mg/kg i.p.): 23.9 g
- Body weight (g) initial ([8]; 30 × 4 mg/kg i.p.): 25.0 g
- inhibition of tumor growth, conclusion in words ([8]; BGC-823 nude mice-xenograft tumor, comparison with taxol): equal to taxol
- RTV ([9]; 7.5 × 3 mg/kg): 7.2
- T/C (%) ([9]; 7.5 × 3 mg/kg): 60.7%
- Body weight (g) end ([9]; 7.5 × 3 mg/kg): 21.8 g
- Tv x ± SD end ([9]; 7.5 × 3 mg/kg): 3090 ± 900
- Body weight (g) initial ([9]; 7.5 × 3 mg/kg): 21.6 g
- Tv x ± SD initial ([9]; 7.5 × 3 mg/kg): 431 ± 94
- RTV ([9]; 15 × 3 mg/kg): 6.7
- T/C (%) ([9]; 15 × 3 mg/kg): 56.7%
- Body weight (g) end ([9]; 15 × 3 mg/kg): 25.1 g
- Tv x ± SD end ([9]; 15 × 3 mg/kg): 2897 ± 950
- Body weight (g) initial ([9]; 15 × 3 mg/kg): 22.4 g
- Tv x ± SD initial ([9]; 15 × 3 mg/kg): 432 ± 115
- RTV ([9]; 30 × 3 mg/kg): 4.0
- T/C (%) ([9]; 30 × 3 mg/kg): 33.56%
- Body weight (g) end ([9]; 30 × 3 mg/kg): 23.2 g
- Tv x ± SD end ([9]; 30 × 3 mg/kg): 1646 ± 450
- Body weight (g) initial ([9]; 30 × 3 mg/kg): 21.8 g
- Tv x ± SD initial ([9]; 30 × 3 mg/kg): 415 ± 85
- inhibition of tumor growth, conclusion in words ([9]; A549 nude mice-xenograft tumor, comparison with taxol): stronger effect
- Inhibition (%) (Lewis lung cancer; 2.5 × 8 mg/kg): 27.77%
- Tumor weight (g) Average (Lewis lung cancer; 2.5 × 8 mg/kg): 2.07 g
- Body weight (g) end (Lewis lung cancer; 2.5 × 8 mg/kg): 22.0 g
- Body weight (g) initial (Lewis lung cancer; 2.5 × 8 mg/kg): 20.0 g
- Inhibition (%) (Lewis lung cancer; 5 × 8 mg/kg): 32.46%
- Tumor weight (g) Average (Lewis lung cancer; 5 × 8 mg/kg): 1.96 g
- Body weight (g) end (Lewis lung cancer; 5 × 8 mg/kg): 20.4 g
- Body weight (g) initial (Lewis lung cancer; 5 × 8 mg/kg): 20.0 g
- Inhibition (%) (Lewis lung cancer; 10 × 8 mg/kg): 76.08%
- Tumor weight (g) Average (Lewis lung cancer; 10 × 8 mg/kg): 0.69 g
- Body weight (g) end (Lewis lung cancer; 10 × 8 mg/kg): 16.8 g
- Body weight (g) initial (Lewis lung cancer; 10 × 8 mg/kg): 19.5 g
- inhibition of tumor growth, conclusion in words (Lewis lung cancer; Lewis lung cancer, comparison with taxol): stronger effect

— patent US20110039921A1 (priority 2007, published 2011)
